The EC50 is the midpoint of the concentration-response curve.

Read-outs that look alike come from different tables or passages of the source.

One assay deals with human CB2 receptors (Homo sapiens (Human), UniProt P34972). The assay is described as follows: functional cAMP assay, CHO cells expressing human CB2. It counts as cell-based. The method, boiled down:
(§1)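 CHO cells expressing human CB1 or CB2 were preincubated 30 min at 30 °C in Krebs Ringer bicarbonate with 1 mM IBMX, then exposed to compound 30 min at 30 °C. cAMP quantified by TR-FRET competition (Alexa700 antibody/ruthenium-cAMP) against a 10 μM–0.13 nM standard curve; EC50 derived.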

In another assay the target is human CB1 receptors (Homo sapiens (Human), UniProt P21554). Nature of the assay: functional cAMP assay, CHO cells expressing human CB1. It counts as cell-based. To be noted: functional cAMP assay, CHO cells expressing human CB1. The method, boiled down:
as §1

Chain of human CB2 receptors (P34972 whole entry): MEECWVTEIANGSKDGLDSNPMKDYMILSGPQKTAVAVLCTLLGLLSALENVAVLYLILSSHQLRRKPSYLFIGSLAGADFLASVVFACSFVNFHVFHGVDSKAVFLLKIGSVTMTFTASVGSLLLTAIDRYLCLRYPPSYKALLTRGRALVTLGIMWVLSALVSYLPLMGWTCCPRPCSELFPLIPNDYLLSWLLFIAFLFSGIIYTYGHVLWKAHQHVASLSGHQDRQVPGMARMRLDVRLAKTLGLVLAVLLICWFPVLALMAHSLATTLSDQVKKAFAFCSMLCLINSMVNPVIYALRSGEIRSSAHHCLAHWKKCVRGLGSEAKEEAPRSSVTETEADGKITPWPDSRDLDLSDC
Chain of human CB1 receptors (P21554 whole entry): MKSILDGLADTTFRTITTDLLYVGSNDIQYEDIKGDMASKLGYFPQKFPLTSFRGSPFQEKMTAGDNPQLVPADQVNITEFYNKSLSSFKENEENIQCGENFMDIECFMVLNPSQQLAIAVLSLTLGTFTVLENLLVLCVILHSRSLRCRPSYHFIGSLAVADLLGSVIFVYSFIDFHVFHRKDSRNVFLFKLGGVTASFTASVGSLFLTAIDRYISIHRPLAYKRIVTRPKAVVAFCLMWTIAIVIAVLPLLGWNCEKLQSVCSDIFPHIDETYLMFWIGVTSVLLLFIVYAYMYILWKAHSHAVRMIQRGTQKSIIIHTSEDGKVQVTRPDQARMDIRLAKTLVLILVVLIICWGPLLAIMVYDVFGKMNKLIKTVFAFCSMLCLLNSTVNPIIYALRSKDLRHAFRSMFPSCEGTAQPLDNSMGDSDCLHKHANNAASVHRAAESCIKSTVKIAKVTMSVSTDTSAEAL

On to `Cc1nc(C(C)(CC2CC2)NC(=O)c2cc(OCC(F)F)c(C3CC3)cn2)no1` (stereo not shown) [Example 145, 5-cyclopropyl-N-[1-cyclopropyl-2-(5-methyl-1,2,4-oxadiazol-3-yl)propan-2-yl]-4-(2,2-difluoroethoxy)pyridine-2-carboxamide], for which the EC50 is 0.0034 µM at human CB2 receptors (read-out: Human CB2 EC50) and above 10 µM at human CB1 receptors (read-out: Human CB1 EC50).
On the same counts, the results for `Cc1nc(C(C)(CC2CC2)NC(=O)c2cc(OCCF)c(C3CC3)cn2)no1` (stereo not shown) [Example 146, 5-cyclopropyl-N-[1-cyclopropyl-2-(5-methyl-1,2,4-oxadiazol-3-yl)propan-2-yl]-4-(2-fluoroethoxy)pyridine-2-carboxamide] are 0.0018 µM and above 10 µM.
On to `Cc1nc(C(C)(NC(=O)c2cc(OCC(F)(F)F)c(C3CC3)cn2)C(=O)N2CC(F)(F)C2)no1` (stereo not shown) [Example 147, 5-cyclopropyl-N-[1-(3,3-difluoroazetidin-1-yl)-2-(5-methyl-1,2,4-oxadiazol-3-yl)-1-oxopropan-2-yl]-4-(2,2,2-trifluoroethoxy)pyridine-2-carboxamide], for which the EC50 at human CB2 receptors (read-out: Human CB2 EC50) is 0.0454 µM; on human CB1 receptors (read-out: Human CB1 EC50) it was above 10 µM.
For `Cc1nc(C(C)(NC(=O)c2cc(OCC(F)(F)F)c(C3CC3)cn2)C(=O)N2CC3(COC3)C2)no1` (stereo not shown) [Example 148, 5-cyclopropyl-N-[2-(5-methyl-1,2,4-oxadiazol-3-yl)-1-(2-oxa-6-azaspiro[3.3]heptan-6-yl)-1-oxopropan-2-yl]-4-(2,2,2-trifluoroethoxy)pyridine-2-carboxamide] the same measures were 0.205 µM and above 10 µM.
For `CNC(=O)C(C)(NC(=O)c1cc(OCC(F)(F)F)c(C2CC2)cn1)c1noc(C)n1` (stereo not shown) [Example 149, 5-cyclopropyl-N-[1-(methylamino)-2-(5-methyl-1,2,4-oxadiazol-3-yl)-1-oxopropan-2-yl]-4-(2,2,2-trifluoroethoxy)pyridine-2-carboxamide] the same measures were 0.0127 µM and above 10 µM.
Regarding `Cn1nnc(C(C)(CC2CC2)NC(=O)c2cc(OCC(F)(F)F)c(C3CC3)cn2)n1` (stereo not shown) [Example 150, 5-cyclopropyl-N-[1-cyclopropyl-2-(2-methyltetrazol-5-yl)propan-2-yl]-4-(2,2,2-trifluoroethoxy)pyridine-2-carboxamide], the EC50 was 0.109 µM at human CB2 receptors (read-out: Human CB2 EC50) and above 10 µM on human CB1 receptors (read-out: Human CB1 EC50).
For `Cn1nnnc1C(C)(CC1CC1)NC(=O)c1cc(OCC(F)(F)F)c(C2CC2)cn1` (stereo not shown) [Example 151, 5-cyclopropyl-N-[1-cyclopropyl-2-(1-methyltetrazol-5-yl)propan-2-yl]-4-(2,2,2-trifluoroethoxy)pyridine-2-carboxamide], the EC50 at human CB2 receptors (read-out: Human CB2 EC50) was 0.0198 µM; at human CB1 receptors (read-out: Human CB1 EC50) it was above 10 µM.
Turning to `Cc1csc(C2(NC(=O)c3cc(OCC(F)(F)F)c(C4CC4)cn3)CCOCC2)n1` [Example 152, 5-cyclopropyl-N-[4-(4-methyl-1,3-thiazol-2-yl)oxan-4-yl]-4-(2,2,2-trifluoroethoxy)pyridine-2-carboxamide], the concentration giving a half-maximal response (EC50) is 0.185 µM on human CB2 receptors (read-out: Human CB2 EC50) and above 10 µM on human CB1 receptors (read-out: Human CB1 EC50).
Consider `Cc1cnc(C2(NC(=O)c3cc(OCC(F)(F)F)c(C4CC4)cn3)CCOCC2)s1` [Example 153, 5-cyclopropyl-N-[4-(5-methyl-1,3-thiazol-2-yl)oxan-4-yl]-4-(2,2,2-trifluoroethoxy)pyridine-2-carboxamide], for which the concentration giving a half-maximal response (EC50) was 0.0407 µM at human CB2 receptors (Human CB2 EC50 (uM)) and above 10 µM at human CB1 receptors (Human CB1 EC50 (uM)).
Turning to `Cc1csc(C(C)(CC2CC2)NC(=O)c2cc(OCC(F)(F)F)c(C3CC3)cn2)n1` (stereo not shown) [Example 158, 5-cyclopropyl-N-[1-cyclopropyl-2-(4-methyl-1,3-thiazol-2-yl)propan-2-yl]-4-(2,2,2-trifluoroethoxy)pyridine-2-carboxamide], the half-maximal effective concentration (EC50) on human CB2 receptors (read-out: Human CB2 EC50) is 0.0958 µM; at human CB1 receptors (read-out: Human CB1 EC50) it was above 10 µM.
In the case of `CC(CC1CC1)(NC(=O)c1cc(OCC(F)(F)F)c(C2CC2)cn1)c1nnn[nH]1` (stereo not shown) [Example 159, 5-cyclopropyl-N-[1-cyclopropyl-2-(1H-tetrazol-5-yl)propan-2-yl]-4-(2,2,2-trifluoroethoxy)pyridine-2-carboxamide], the EC50 was 0.935 µM on human CB2 receptors (read-out: Human CB2 EC50) and above 10 µM at human CB1 receptors (read-out: Human CB1 EC50).

Source of the values: patent US9409866B2, “Pyridine-2-amides useful as CB2 agonists” (Hoffmann-La Roche Inc., priority 2012, dated 2016).
